Series [1] is described as follows: Peptide stability in human serum. The series is classed as in vitro ADME. To be noted: peptide 100 µM, 37 °C, aliquots 0 min to 48 h, MeOH protein precipitation, % intact peptide by UHPLC-UV, confirmed with mass spectrometry. As to the method: Peptide stability in human serum
Peptides were dissolved in human serum at a final concentration of 100 µM and then incubated at 37 °C. Aliquots of 50 µL were taken at different times (0 min, 15 min, 30 min, 1 h, 2 h, 4 h, 6 h, 24 h and 48 h) and flash frozen with acetone/solid CO 2. Samples were treated with 200 µL of MeOH to precipitate serum proteins. Samples for U HPLC analysis were centrifuged and filtered through a 0.22 µm filter before injection. Aliquots were analysed with UHPLC-UV (flow = 0.61 mL/min; gradient 5 -95% MeCN (0.036% TFA) in water (0.045% TFA) in 2 minutes). The amount of peptide remaining was calculated by comparing the area under the curve of the several samples. […]

Another series has as its target HeLa cells (TfR1+) (Homo sapiens, UniProt P02786). Description: Cell binding assay of sCy5-labelled peptides to HeLa cells by flow cytometry. The series is classed as cell-based. The note with it: 5 to 600 nM, 4 °C, 1 hour, geometric mean vs concentration. As to the method:
HeLa cells were cultured in DMEM media (1000 mg/L glucose) supplemented with 10% fetal bovine serum (FBS), 1% of 2 mM L -glutamine and 1% antibiotics (100 units/mL of penicillin and 100 µg/mL of streptomycin). Cells were expanded at 80% confluence and grown at 37°C with 5% CO2. All work performed with human cells follow the ethical principles and EU […]
Cell transfection of HeLa cells to express higher levels of TfR1
In a 96-well plate, 10,000 HeLa cells per well were seeded and left to grow for 24 h. A mixture of Lipofectamine 3000 (0.1 µL/well, Lipofectamine™ 3000 Transfection Reagent, ThermoFisher Scientific ), P3000 Reagent (0.2 µL/well) and the DNA pTfR-mNeonGreen (Plasmid #129608, Addgene) (100 ng/well ) in Opti-MEM medium was prepared. The mixture was incubated for 15 mi n, added to the cells, and incubated for 48 h.
48-hour post-transfection, 50 μl of the sulfo-Cy5-labelled peptides were added to each well at the appropriate concentration (from 5 to 600 nM) and incubated at 4°C for 1 hour. Cells were washed three times with 100 μL of PBS, trypsinized with 25 μl of trypsin for 5 min at 37°C and, then 75 μL of supplemented medium with formalin (33% v/v) was added. Cells were detached by repeated pipetting and analysed using an Agilent NovoCyteflow cytometer (Agilent). sCy5 was analysed at 640 nm while mNeon-Green at 488 nm. Data was analysed by plotting the geometric mean vs the concentration of the peptide. […]
(In flow cytometry, cells or beads pass a laser one at a time.)

Series [2] addresses T1, human Transferrin Receptor (Homo sapiens, UniProt P02786).
T1 construct: purchased Acro Biosystems TFR-H82E5
Description: Biolayer interferometry with immobilized extracellular domain of the receptor. To be noted: biotinylated hTfR on streptavidin biosensors, Octet R2, 25 °C, 10 mM HEPES pH 7.4, 150 mM NaCl, 0.05 % Tween-20, 1 mg/mL BSA; peptide 11.1, 33.3, 100 µM; 1:1 binding model; read-out: KD, binding to immobilized human TfR. As for the experimental part:
Biophysical characterization
Binding assays were performed on an Octet R2 (Sartorious) using streptavidin-coated biosensors (SA biosensors, 18-5019). Biosensors were equilibrated for at least 10 min in binding buffer (10 mM HEPES pH 7.4, 150 mM NaCl, 0.05 % Tween-20, 1 mg/mL BSA).
Experiments were designed and executed from the Octet BLI Discovery 13.0 software. The biotinylated human Transferrin Receptor (TFR-H82E5, Acro Biosystems) was immobilized onto the biosensor by dipping the sensors into a solution of 1 µg/mL hTfR for 500 s, followed by dipping the sensor into a fresh solution of binding buffer to stablish a baseline for 200 s.
Titrations were executed at 25 °C while rotating at 1000 rpm. In the association phase, the sensors were dipped into a solution containing the peptides at several concentrations in binding buffer for 150 s. After reaching equilibrium, the biosensors were dipped into fresh binding solution to monitor the dissociation kinetics for 200 s. Kinetic data were collected and processed using a 1:1 binding model to obtain the affinity constants using the Octet Analysis […]
Unpaired two-tailed student t tests were applied to evaluate the significant difference or p values between data sets using Prism 6.0c software.
1. C. Heinis, T. Rutherford, S. Freund and G. Winter, Nat Chem Biol, 2009, 5, 502–507.
2. […]

In series [3] the test system is human brain endothelial cells monolayer (BBB model). Description: Permeability assay in the in vitro BBB cellular model (human brain-like endothelial cells on Transwell). Type of series: in vitro ADME. To be noted: human cell-based BBB model. As for the experimental part: 48-hour post-transfection, 50 μl of the sulfo-Cy5-labelled peptides were added to each well at the appropriate concentration (from 5 to 600 nM) and incubated at 4°C for 1 hour. Cells were washed three times with 100 μL of PBS, trypsinized with 25 μl of trypsin for 5 min at 37°C and, then 75 μL of supplemented medium with formalin (33% v/v) was added. Cells were detached by repeated pipetting and analysed using an Agilent NovoCyteflow cytometer (Agilent). sCy5 was analysed at 640 nm while mNeon-Green at 488 nm. Data was analysed by plotting the geometric mean vs the concentration of the peptide.
Permeability assays in the in vitro BBB cellular model […]
the compound in Ringer HEPES was added to the donor compartment and 1500 µL of Ringer HEPES was introduced into the acceptor compartment. The plates were incubated for 2 h at 37 °C, and the solutions from both compartments were recovered and analysed. The samples were evaluated in triplicates. The amount of protein conjugates was quantified by fluorescence with Fluorescence Spectrophotometer F2500 HITACHI. […] The voltage for the detector was 700 V. Apparent permeability was calculated with the following formula: […]

From PMC10763564, “BrainBike peptidomimetic enables efficient transport of proteins across brain endothelium” (RSC Chemical Biology, 2023) come the findings set out here.

Starred links: 1 amine or outer side, 2 acyl side, 3 side chain; linkers in the order of their positions; H or OH if unused. Positions of bridges follow the written chain, without caps; N, C: chain ends. Residues, ends and D or L forms follow the SMILES beside them. TBMB = c1c(C[*:1])cc(C[*:3])cc1C[*:2]

Chain of HeLa cells (TfR1+) (P02786 whole entry): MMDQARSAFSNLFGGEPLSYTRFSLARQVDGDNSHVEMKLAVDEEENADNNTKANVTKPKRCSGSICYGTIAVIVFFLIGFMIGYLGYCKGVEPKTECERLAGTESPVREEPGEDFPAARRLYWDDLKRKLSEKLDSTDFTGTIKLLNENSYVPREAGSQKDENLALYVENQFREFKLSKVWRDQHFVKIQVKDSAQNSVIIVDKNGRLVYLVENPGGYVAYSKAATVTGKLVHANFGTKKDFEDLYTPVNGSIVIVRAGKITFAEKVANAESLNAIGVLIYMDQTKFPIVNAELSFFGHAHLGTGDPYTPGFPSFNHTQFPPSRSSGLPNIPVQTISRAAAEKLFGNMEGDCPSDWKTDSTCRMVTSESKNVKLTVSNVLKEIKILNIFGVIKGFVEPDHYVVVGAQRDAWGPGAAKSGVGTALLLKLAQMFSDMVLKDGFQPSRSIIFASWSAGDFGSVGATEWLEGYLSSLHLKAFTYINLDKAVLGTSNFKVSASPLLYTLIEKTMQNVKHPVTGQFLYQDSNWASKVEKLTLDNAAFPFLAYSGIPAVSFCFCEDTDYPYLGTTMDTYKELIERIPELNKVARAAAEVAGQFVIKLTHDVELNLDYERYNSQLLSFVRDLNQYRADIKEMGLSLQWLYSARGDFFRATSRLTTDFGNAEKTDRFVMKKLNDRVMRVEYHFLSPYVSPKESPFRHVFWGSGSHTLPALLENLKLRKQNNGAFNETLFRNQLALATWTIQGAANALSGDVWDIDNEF
T1 sequence (P02786 89-760 limits assumed): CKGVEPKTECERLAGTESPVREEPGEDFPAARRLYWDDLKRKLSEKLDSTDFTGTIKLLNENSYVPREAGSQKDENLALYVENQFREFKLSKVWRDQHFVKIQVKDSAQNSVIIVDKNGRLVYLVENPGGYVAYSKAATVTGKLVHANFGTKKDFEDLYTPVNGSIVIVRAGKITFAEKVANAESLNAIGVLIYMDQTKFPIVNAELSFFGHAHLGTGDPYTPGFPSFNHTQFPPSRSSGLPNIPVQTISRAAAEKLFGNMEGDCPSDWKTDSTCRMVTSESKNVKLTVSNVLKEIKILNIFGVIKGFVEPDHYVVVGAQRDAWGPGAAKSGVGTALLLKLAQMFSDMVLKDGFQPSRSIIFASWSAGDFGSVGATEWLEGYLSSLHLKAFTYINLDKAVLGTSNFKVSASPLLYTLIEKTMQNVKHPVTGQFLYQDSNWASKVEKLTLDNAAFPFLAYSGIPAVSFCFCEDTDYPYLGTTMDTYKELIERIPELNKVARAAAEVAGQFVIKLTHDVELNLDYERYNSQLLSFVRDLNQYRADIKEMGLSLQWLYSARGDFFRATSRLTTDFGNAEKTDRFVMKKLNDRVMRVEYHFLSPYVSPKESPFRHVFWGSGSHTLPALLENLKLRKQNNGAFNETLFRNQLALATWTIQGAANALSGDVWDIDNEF

For “H-GVHWDFRQWWQPS-NH2 [Y1, reference compound]”, the half-life (commonly the time in which the quantity being followed falls by half) at 100 µM in series [1] is 1.8 ± 0.5 h. In addition, the “App. Kd, association to HeLa cells (TfR1+)” value (from here on “App. Kd, association”) at HeLa cells (TfR1+) came out at 270 ± 5 nM. Also, in series [2], the dissociation constant Kd (usually the equilibrium constant for the complex coming apart) is over 100000 nM.

With `CC(C)[C@@H]1NC(=O)[C@@H](N)CSCc2cc3cc(c2)CSC[C@H](NC(=O)[C@H](CC(=O)O)NC(=O)[C@H](Cc2c[nH]c4ccccc24)NC(=O)[C@H](Cc2c[nH]cn2)NC1=O)C(=O)N[C@@H](CCCNC(=N)N)C(=O)N[C@@H](CCC(N)=O)C(=O)N[C@@H](Cc1c[nH]c2ccccc12)C(=O)N[C@H](C(N)=O)CSC3` [BrainBike-4] (H-CVHWDCRQWC-NH2; linker 1-6-10 via TBMB), in series [1], the half-life at 100 µM is 5.5 ± 2.5 h. The “App. Kd, association” value on HeLa cells (TfR1+) is on record as “roughly 40 nM”; at HeLa cells (TfR1+) (listed as BB4), 37 ± 2 nM. The “Fold increase in the transport of GFP on conjugation to the shuttle” value in series [3] (GFP conjugate vs GFP) is on record as 4 fold. The “Fold increase in the transport of the scFv on conjugation to the shuttle” value in series [3] (sCy5-labelled scFv conjugate vs scFv) is on record as 5 fold.

`CC(C)[C@@H]1NC(=O)[C@@H](N)CSCc2cc3cc(c2)CSC[C@H](NC(=O)[C@H](CC(=O)O)NC(=O)[C@H](Cc2c[nH]c4ccccc24)NC(=O)[C@H](Cc2c[nH]cn2)NC1=O)C(=O)N[C@@H](CCCNC(=N)N)C(=O)N[C@@H](CCC(N)=O)C(=O)N[C@@H](Cc1c[nH]c2ccccc12)C(=O)N[C@@H](Cc1c[nH]c2ccccc12)C(=O)N[C@@H](CCC(N)=O)C(=O)N1CCC[C@H]1C(=O)N[C@@H](CO)C(=O)N[C@H](C(N)=O)CSC3` [BrainBike-1] (H-CVHWDCRQWWQPSC-NH2; linker 1-6-14 via TBMB) showed a half-life at 100 µM in series [1] of 7.7 ± 1.9 h. Further, the “App. Kd, association” value at HeLa cells (TfR1+) was over 400 nM.

In turn, `CC(C)[C@@H]1NC(=O)[C@@H](N)CSCc2cc3cc(c2)CSC[C@H](NC(=O)[C@H](Cc2c[nH]c4ccccc24)NC(=O)[C@H](CCC(N)=O)NC(=O)[C@H](CCCNC(=N)N)NC(=O)[C@H](Cc2ccccc2)NC(=O)[C@H](CC(=O)O)NC(=O)[C@H](Cc2c[nH]c4ccccc24)NC(=O)[C@H](Cc2c[nH]cn2)NC1=O)C(=O)N[C@@H](CCC(N)=O)C(=O)N1CCC[C@H]1C(=O)N[C@@H](CO)C(=O)N[C@H](C(N)=O)CSC3` [BrainBike-2] (H-CVHWDFRQWCQPSC-NH2; linker 1-10-14 via TBMB) gave a half-life at 100 µM in series [1] of 3.5 ± 0.3 h. Besides, on HeLa cells (TfR1+), the “App. Kd, association” value is recorded as 120 ± 15 nM.

In turn, `CC(C)[C@@H]1NC(=O)[C@@H](N)CSCc2cc3cc(c2)CSC[C@H](NC(=O)[C@H](CCCNC(=N)N)NC(=O)[C@H](Cc2ccccc2)NC(=O)[C@H](CC(=O)O)NC(=O)[C@H](Cc2c[nH]c4ccccc24)NC(=O)[C@H](Cc2c[nH]cn2)NC1=O)C(=O)N[C@@H](CCC(N)=O)C(=O)N[C@@H](Cc1c[nH]c2ccccc12)C(=O)N[C@@H](Cc1c[nH]c2ccccc12)C(=O)N[C@@H](CCC(N)=O)C(=O)N1CCC[C@H]1C(=O)N[C@@H](CO)C(=O)N[C@H](C(N)=O)CSC3` [BrainBike-3] (H-CVHWDFRCQWWQPSC-NH2; linker 1-8-15 via TBMB) had a half-life at 100 µM in series [1] of 4.8 ± 0.6 h. Further, the “App. Kd, association” value at HeLa cells (TfR1+) was 250 ± 5 nM.
